The record followed here is US11802120B2, “Fused cyclic urea derivatives as CRHR2 antagonist” (RaQualia Pharma Inc., priority 2018, dated 2023).

The structures appear in SMILES notation. pIC50: −log10 of the molar value.

The target in the assay is T1, human CRHR2-alpha (Homo sapiens, UniProt Q13324).
T1 sequence (Q13324 1-411): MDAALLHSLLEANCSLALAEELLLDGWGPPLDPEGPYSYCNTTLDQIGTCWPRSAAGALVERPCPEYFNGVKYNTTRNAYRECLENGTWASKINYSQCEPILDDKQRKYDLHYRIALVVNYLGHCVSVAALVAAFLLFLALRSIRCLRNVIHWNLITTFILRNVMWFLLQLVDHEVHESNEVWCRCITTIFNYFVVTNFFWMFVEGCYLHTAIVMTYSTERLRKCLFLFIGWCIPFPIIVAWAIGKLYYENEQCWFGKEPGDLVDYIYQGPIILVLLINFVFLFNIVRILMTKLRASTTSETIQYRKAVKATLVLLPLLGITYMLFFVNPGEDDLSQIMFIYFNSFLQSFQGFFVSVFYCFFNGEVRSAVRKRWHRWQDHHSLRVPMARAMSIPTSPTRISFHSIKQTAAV
The assay is described as follows: cAMP functional assay for human CRHR2 (LANCE Ultra cAMP, TR-FRET). The note with it: CHO-K1 cells expressing human CRHR2-alpha, agonist human urocortin2 at EC80, cAMP; read-out: IC50 against CRHR2. It is filed as cell-based. An outline of the steps:
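CHO-K1 cells stably expressing each receptor, serum-starved and cryopreserved, were preincubated with compound 30 min at 25° C in HBSS buffer with 0.5 mM IBMX, pH 7.4, then stimulated 30 min with EC80 agonist (urocortin2 for CRHR2, CRF for CRHR1). cAMP read by TR-FRET; IC50 from percent-inhibition curves.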
Regarding `Cn1ccnc1-c1ccc(-n2c(=O)n(C[C@H]3CC[C@H](NC(=O)c4cc(Cl)cnc4C(F)F)CC3)c3ccccc32)cc1` [Example 567, 5-chloro-2-(difluoromethyl)-N-((1r,4r)-4-((3-(4-(1-methyl-1H-imidazol-2-yl)phenyl)-2-oxo-2,3-dihydro-1H-benzo[d]imidazol-1-yl)methyl)cyclo-hexyl)nicotinamide], the pIC50 (as a rule, −log10 of the IC50, conventionally taken in molar units) was more than 6.52.
For `Cc1ncc(Cl)cc1C(=O)N[C@H]1CC[C@H](Cn2c(=O)n(-c3cccc(-c4cocn4)c3)c3ccccc32)CC1` [Example 568, 5-chloro-2-methyl-N-((1r,4r)-4-((3-(3-(oxazol-4-yl)phenyl)-2-oxo-2,3-dihydro-1H-benzo [d]imidazol-1-yl)methyl)cyclo-hexyl)nicotinamide] the value was more than 6.52.
With `O=C(N[C@H]1CC[C@H](Cn2c(=O)n(-c3ccc(-n4ccnc4)cc3)c3ccccc32)CC1)c1cc(Cl)cnc1C(F)F` [Example 569, N-((1r,4r)-4-((3-(4-(1H-imidazol-1-yl)phenyl)-2-oxo-2,3-dihydro-1H-benzo[d]imidazol-1-yl)methyl)cyclo-hexyl)-5-chloro-2-(difluoro-methyl)nicotinamide] the figure was more than 6.52.
For `O=C(N[C@H]1CC[C@H](Cn2c(=O)n(-c3ccnc(-n4ccnc4)c3)c3ccccc32)CC1)c1cc(Cl)cnc1C(F)F` [Example 570, N-((1r,4r)-4-((3-(2-(1H-imidazol-1-yl)pyridin-4-yl)-2-oxo-2,3-dihydro-1H-benzo [d]imidazol-1-yl)methyl)cyclohexyl)-5-chloro-2-(difluoromethyl)nicotinamide] the value was more than 6.52.
On to `O=C(N[C@H]1CC[C@H](Cn2c(=O)n(-c3ccc(NCCO)nc3)c3ccccc32)CC1)c1cc(Cl)cnc1C(F)F` [Example 571, 5-chloro-2-(difluoromethyl)-N-((1r,4r)-4-((3-(6-((2-hydroxyethyl)amino)pyridin-3-yl)-2-oxo-2,3-dihydro-1H-benzo[d]imidazol-1-yl)methyl)cyclohexyl)nicotinamide], for which the pIC50 was more than 6.52.
`COCCNc1ccc(-n2c(=O)n(C[C@H]3CC[C@H](NC(=O)c4cc(Cl)cnc4C(F)F)CC3)c3ccccc32)cn1` [Example 572, 5-chloro-2-(difluoromethyl)-N-((1r,4r)-4-((3-(6-((2-methoxyethyl)amino)pyridin-3-yl)-2-oxo-2,3-dihydro-1H-benzo[d]imidazol-1-yl)methyl)cyclohexyl)nicotinamide]: the pIC50 was more than 6.52.
For `CNc1cc(-n2c(=O)n(C[C@H]3CC[C@H](NC(=O)c4cc(Cl)cnc4C)CC3)c3ccccc32)ccn1` [Example 573, 5-chloro-2-methyl-N-((1r,4r)-4-((3-(2-(methylamino)pyridin-4-yl)-2-oxo-2,3-dihydro-1H-benzo[d]imidazol-1-yl)methyl)cyclohexyl)nicotinamide] the value was more than 6.52.
With `CNc1ccc(-n2c(=O)n(C[C@H]3CC[C@H](NC(=O)c4cc(Cl)cnc4C)CC3)c3ccccc32)nc1` [Example 574, 5-chloro-2-methyl-N-((1r,4r)-4-((3-(5-(methylamino)pyridin-2-yl)-2-oxo-2,3-dihydro-1H-benzo[d]imidazol-1-yl)methyl)cyclohexyl)nicotinamide] the figure was more than 6.52.
With `Cc1n[nH]c2ccc(-n3c(=O)n(C[C@H]4CC[C@H](NC(=O)c5cc(Cl)cnc5C(F)F)CC4)c4cccnc43)cc12` [Example 576, 5-chloro-2-(difluoromethyl)-N-((1r,4r)-4-((3-(3-methyl-1H-indazol-5-yl)-2-oxo-2,3-dihydro-1H-imidazo[4,5-b]pyridin-1-yl)methyl)cyclo-hexyl)nicotinamide] the figure was more than 6.52.
Turning to `Cc1c[nH]c2ncc(-n3c(=O)n(C[C@H]4CC[C@H](NC(=O)c5cc(Cl)cnc5C(F)F)CC4)c4ncccc43)cc12` [Example 578, 5-chloro-2-(difluoromethyl)-N-((1r,4r)-4-((1-(3-methyl-1H-pyrrolo[2,3-b]pyridin-5-yl)-2-oxo-1H-imidazo[4,5-b]pyridin-3(2H)-yl)methyl)cyclohexyl)nicotinamide], the pIC50 was more than 6.52.
`Cc1ncc(Cl)cc1C(=O)N[C@H]1CC[C@H](Cn2c(=O)n(-c3ccc(-c4cnn(C)c4)cc3)c3ccccc32)CC1` [Example 579, 5-chloro-2-methyl-N-((1r,4r)-4-((3-(4-(1-methyl-1H-pyrazol-4-yl)phenyl)-2-oxo-2,3-dihydro-1H-benzo[d]imidazol-1-yl)methyl)cyclo-hexyl)nicotinamide]: the pIC50 is more than 6.52.
With `Cc1ncc(Cl)cc1C(=O)N[C@H]1CC[C@H](Cn2c(=O)n(-c3ccc(-c4cncs4)cc3)c3ccccc32)CC1` [Example 580, 5-chloro-2-methyl-N-((1r,4r)-4-((2-oxo-3-(4-(thiazol-5-yl)phenyl)-2,3-dihydro-1H-benzo[d]imidazol-1-yl)methyl)cyclohexyl)nicotinamide] the figure was more than 6.52; with `Cc1ncc(Cl)cc1C(=O)N[C@H]1CC[C@H](Cn2c(=O)n(-c3ccc(-c4cn[nH]c4)cc3)c3ccccc32)CC1` [Example 581, N-((1r,4r)-4-((3-(4-(1H-pyrazol-4-yl)phenyl)-2-oxo-2,3-dihydro-1H-benzo[d]imidazol-1-yl)methyl)cyclohexyl)-5-chloro-2-methylnicotinamide], more than 6.52; with `CNC(=O)c1ccc(-n2c(=O)n(C[C@H]3CC[C@H](NC(=O)c4cc(Cl)cnc4CF)CC3)c3ccccc32)cn1` [Example 582, 5-(3-(((1r,4r)-4-(5-chloro-2-(fluoromethyl)nicotina-mido)cyclohexyl)methyl)-2-oxo-2,3-dihydro-1H-benzo[d]imidazol-1-yl)-N-methylpicolinamide], more than 6.52.
In the case of `Cc1noc2cc(-n3c(=O)n(C[C@H]4CC[C@H](NC(=O)c5cc(Cl)cnc5C(F)F)CC4)c4cccnc43)ccc12` [Example 583, 5-chloro-2-(difluoromethyl)-N-((1r,4r)-4-((3-(3-methyl-benzo[d]isoxazol-6-yl)-2-oxo-2,3-dihydro-1H-imidazo [4,5-b]pyridin-1-yl)methyl)cyclohexyl)nicotinamide], the negative logarithm of the IC50 (pIC50) was more than 6.52.
Regarding `O=C(N[C@H]1CC[C@H](Cn2c(=O)n(-c3ccc(N4CC5(COC5)CC4=O)nc3)c3ccccc32)CC1)c1cc(Cl)cnc1C(F)F` [Example 584, 5-chloro-2-(difluoromethyl)-N-((1r,4r)-4-((2-oxo-3-(6-(7-oxo-2-oxa-6-azaspiro[3,4]octan-6-yl)pyridin-3-yl)-2,3-dihydro-1H-benzo[d]imidazol-1-yl)methyl)cyclohexyl) nicotinamide], the pIC50 is more than 6.52.
Turning to `O=C(NC1CC1)c1ccc(-n2c(=O)n(C[C@H]3CC[C@H](NC(=O)c4cc(Cl)cnc4C(F)F)CC3)c3ccccc32)cn1` [Example 585, 5-(3-(((1r,4r)-4-(5-chloro-2-(difluoromethyl)nicotinamido)cyclohexyl)methyl)-2-oxo-2,3-dihydro-1H-benzo[d]imidazol-1-yl)-N-cyclopropyl-picolinamide], the pIC50 was more than 6.52.
For `COCCNc1ccc(-n2c(=O)n(C[C@H]3CC[C@H](NC(=O)c4cc(Cl)cnc4C)CC3)c3ccccc32)cn1` [Example 593, 5-chloro-N-((1r,4r)-4-((3-(6-((2-methoxyethyl)amino)pyridin-3-yl)-2-oxo-2,3-dihydro-1H-benzo[d]imidazol-1-yl)methyl)cyclo-hexyl)-2-methylnicotinamide] the value was more than 6.52.
